Data on 38 compounds can be found in patent US20150148256A1, “BIOLUMINESCENCE IMAGING-BASED SCREENING ASSAY AND INHIBITORS OF ABCG2” (THE JOHNS HOPKINS UNIVERSITY, priority 2008, published 2015).

Counter-ions that a name gives are not always drawn. Residues, ends and D or L forms follow the SMILES beside them.

For one series, the target named is T1, ABCG2 (Homo sapiens, UniProt Q9UNQ0).
T1 sequence (Q9UNQ0 1-655): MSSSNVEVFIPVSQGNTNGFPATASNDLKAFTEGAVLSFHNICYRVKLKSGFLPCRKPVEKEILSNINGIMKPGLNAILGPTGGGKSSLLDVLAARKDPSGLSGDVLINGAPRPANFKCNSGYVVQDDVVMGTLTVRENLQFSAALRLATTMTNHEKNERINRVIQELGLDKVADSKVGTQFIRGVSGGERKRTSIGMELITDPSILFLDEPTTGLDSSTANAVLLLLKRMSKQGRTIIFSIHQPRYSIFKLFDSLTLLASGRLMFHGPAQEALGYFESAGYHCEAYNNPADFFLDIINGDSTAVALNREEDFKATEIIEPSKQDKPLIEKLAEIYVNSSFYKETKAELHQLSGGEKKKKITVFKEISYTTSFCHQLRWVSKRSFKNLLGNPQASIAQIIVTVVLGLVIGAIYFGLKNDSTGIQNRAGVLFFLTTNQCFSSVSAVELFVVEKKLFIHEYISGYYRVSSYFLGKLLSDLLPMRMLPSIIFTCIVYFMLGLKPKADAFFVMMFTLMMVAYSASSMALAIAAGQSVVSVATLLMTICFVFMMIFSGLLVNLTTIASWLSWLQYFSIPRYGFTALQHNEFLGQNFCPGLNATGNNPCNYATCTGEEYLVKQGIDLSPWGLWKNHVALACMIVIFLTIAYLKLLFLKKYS
The experiment in a line: Bioluminescence imaging (BLI) assay in HEK293/ABCG2/fLuc cells. Conditions: Table 2; HEK293/ABCG2/fLuc cells, compound approximately 17 μM, ~50 μg/mL D-luciferin, 40 min time point. The method, then: HEK293/ABCG2/fLuc cells were plated into 96-well plates at a density of 4×10^4 cells/100 μL per well and were allowed to attach overnight. The following day, 10 μL of each compound or the control solvent was transferred from a compound library in a 96-well, high-throughput format into the wells using a multichannel pipette. […] Images were taken every 5 minutes for ˜1 h. Light output from each well was quantified at the 40 min time point after initiation of imaging, and the signal-to-background (S/B) ratio of the light output from each compound divided by that from the control well was calculated. This S/B ratio serves as an indicator of the potency of ABCG2 inhibition, the mechanism by which BLI signal is enhanced.
Images were taken every 5 min for ˜1 h, and light output from each well at the 40 min time point was chosen for quantification. The SB ratio of the light output from each compound divided by that from the control well was calculated. This ratio was used as an indicator of the potency of ABCG2 inhibition, the mechanism by which BLI signal is enhanced.
The BLI signal-enhancing effect of selected ABCG2 inhibitors was evaluated within the range of 0.001 μM-100 μM, with HEK293/ABCG2/fLuc cells and 50 μg/mL D-luciferin. The data obtained at 40 min after imaging commencement were chosen arbitrarily to be plotted (FIG. 3).
As to `COc1cc(-c2oc3cc(O)cc(O)c3c(=O)c2O)ccc1O` [isorhamnetin], the “Fold (BLI enhancement, S/B ratio over control)” value is 7.0 fold. The same measure, in the same setting: for `C[C@]12CC[C@@H]3c4ccc(O)cc4CC[C@H]3[C@@H]1CC[C@@H]2OC(=O)CCC1CCCC1` [estradiol cypionate] the value was 3.6 fold; for `COc1ccc(C(=O)c2c(C)n(CCN3CCOCC3)c3ccccc23)cc1` [pravadoline], 2.7 fold. Still for that read-out and setting: for `COc1ccc2cc3[n+](cc2c1OC)CCc1cc2c(cc1-3)OCO2.O=S(=O)([O-])O` [berberine bisulfate] the value was 2.2 fold. As to estrone hemisuccinate, the “Fold (BLI enhancement, S/B ratio over control)” value worked out at 5.4 fold.

For the compound `CC(=O)[C@@]1(O)CC[C@H]2[C@@H]3C=C(Cl)C4=CC(=O)[C@@H]5C[C@@H]5[C@]4(C)[C@H]3CC[C@@]21C` [cyproterone], the “Fold (BLI enhancement, S/B ratio over control)” value came to 2.0 fold.

`COS(=O)(=O)[O-].C[n+]1c2ccccc2nc2ccccc21` [phenazine methosulfate]: the “Fold (BLI enhancement, S/B ratio over control)” value amounted to 2.8 fold.

The series is the same for the next values; noted with them: Table 4; approximately 17 μM, 40 min time point.
Regarding `COc1cc(-c2oc3cc(O)cc(O)c3c(=O)c2O)ccc1O` [isorhamnetin], the “Fold (BLI enhancement), previously unknown compounds” value (“Fold … previously unknown compounds” below) was 7.0 fold. Same read-out and setting: for estrone hemisuccinate the value was 5.4 fold.

Still in this series, the particulars now being: human.
Consider `CC[C@@H](C(=O)[C@@H](C)[C@@H](O)[C@H](C)CCc1ccc(C)c(O)c1C(=O)O)[C@H]1O[C@](CC)([C@H]2CC[C@](O)(CC)[C@H](C)O2)C[C@@H]1C` [lasalocid sodium], for which the “Fold (BLI enhancement, S/B ratio over control)” value turned out to be 2.7 fold. The same measure, in the same setting: the result for `COc1ccc(Cc2nccc3cc(OC)c(OC)cc23)cc1OC` [papaverine hydrochloride] reads 2.0 fold. Same read-out and setting: the result for `C[C@]12Cc3c[nH]nc3C[C@@H]1CC[C@@H]1[C@@H]2CC[C@@]2(C)[C@H]1CC[C@]2(C)O` [stanozolol] reads 2.8 fold. Consider `COC(=O)C1=C(C)NC(C)=C(C(=O)OCCCN2CCC(c3ccccc3)(c3ccccc3)CC2)[C@H]1c1cccc([N+](=O)[O-])c1` [niguldipine], for which the “Fold (BLI enhancement), known compounds” value was 5.9 fold and the “Fold (BLI enhancement, S/B ratio over control)” value came to 5.9 fold.

The series is the same for the next values; noted with them: human, 40 min, 17 μM.
Consider `COc1ccc2cc1Oc1ccc(cc1)C[C@H]1c3c(cc4c(c3Oc3cc5c(cc3OC)CCN(C)[C@@H]5C2)OCO4)CCN1C` [cepharanthine], for which the “Fold (BLI enhancement, S/B ratio over control)” value was 2.1 fold. On to `O=c1c(-c2ccc(O)cc2)coc2cc(O)cc(O)c12` [genistein], for which the “BLI signal enhancement” value came out at 1.2 fold and the “fold (BLI enhancement), additional previously known ABCG2 inhibitors” value worked out at 1.2 fold. With `COC(=O)C1=C(C)NC(C)=C(C(=O)OCCN(C)Cc2ccccc2)C1c1cccc([N+](=O)[O-])c1` (stereo not drawn) [nicardipine], the “Fold (BLI enhancement, S/B ratio over control)” value stood at 2.9 fold and the “fold (BLI enhancement), additional previously known ABCG2 inhibitors” value is recorded as 2.9 fold.

In the case of `Cc1cc(O)c2c(c1)C(=O)c1cc(O)cc(O)c1C2=O` [emodin], the “Fold … previously unknown compounds” value was determined as 6.4 fold and the “Fold (BLI enhancement, S/B ratio over control)” value came out at 6.4 fold. `OCc1cc(C(O)CNCCCCCCOCCCCc2ccccc2)ccc1O` (stereo not drawn) [salmeterol xinafoate]: the “Fold (BLI enhancement, S/B ratio over control)” value turned out to be 2.4 fold. The same measure, in the same setting: for `C=C1CC[C@H](O)C/C1=C/C=C1\CCC[C@]2(C)[C@@H]([C@H](C)CCCC(C)(C)O)CC[C@@H]12` [calcifediol] the value was 3.2 fold; for `CCOc1ccc(Cc2nccc3cc(OCC)c(OCC)cc23)cc1OCC` [ethaverine hydrochloride], 2.6 fold.

As for `CCN(CCCCOC(=O)c1ccc(OC)c(OC)c1)C(C)Cc1ccc(OC)cc1` (stereo not drawn) [mebeverine hydrochloride], the “Fold (BLI enhancement, S/B ratio over control)” value came out at 3.2 fold. On to `OCCN(CCO)c1nc(N2CCCCC2)c2nc(N(CCO)CCO)nc(N3CCCCC3)c2n1` [dipyridamole], for which the “Fold (BLI enhancement), known compounds” value amounted to 7.1 fold; the “Fold (BLI enhancement, S/B ratio over control)” value was determined as 7.1 fold; the “fold (BLI enhancement), additional previously known ABCG2 inhibitors” value was found to be 7.1 fold. On to `O=C1C[C@@H](c2ccc(O)cc2)Oc2cc(O)cc(O)c21` [naringenin], for which the “BLI signal enhancement” value was found to be 1.9 fold and the “fold (BLI enhancement), additional previously known ABCG2 inhibitors” value stood at 1.9 fold. For the compound `CCCCCNC(=N)N/N=C/c1c[nH]c2ccc(OC)cc12` [tegaserod maleate], the “Fold (BLI enhancement, S/B ratio over control)” value was found to be 3.1 fold. Take `COCCOC(=O)C1=C(C)NC(C)=C(C(=O)OC(C)C)C1c1cccc([N+](=O)[O-])c1` (stereo not drawn) [nimodipine]: the “Fold (BLI enhancement, S/B ratio over control)” value came to 2.8 fold and the “fold (BLI enhancement), additional previously known ABCG2 inhibitors” value is 2.8 fold. Take `CC(=O)[C@H]1CC[C@H]2[C@@H]3C[C@H](C)C4=CC(=O)CC[C@]4(C)[C@H]3[C@@H](O)C[C@]12C` [medrysone]: the “Fold (BLI enhancement, S/B ratio over control)” value was found to be 2.3 fold. The same measure, in the same setting: for `CC(=O)O[C@]1(C(C)=O)CC[C@H]2[C@@H]3C=C(C)C4=CC(=O)CC[C@]4(C)[C@H]3CC[C@@]21C` [megestrol acetate] the value was 2.1 fold. For `O=c1cc(-c2ccccc2)oc2cc(O)cc(O)c12` [chrysin], the “Fold (BLI enhancement, S/B ratio over control)” value turned out to be 2.3 fold and the “fold (BLI enhancement), additional previously known ABCG2 inhibitors” value is 2.3 fold. `CCCC(=O)O[C@]1(C(=O)COC(C)=O)CC[C@H]2[C@@H]3C[C@H](F)C4=CC(=O)C=C[C@]4(C)[C@@]3(F)[C@@H](O)C[C@@]21C` [difluprednate]: the “Fold (BLI enhancement, S/B ratio over control)” value is recorded as 2.0 fold.

For the compound `COc1ccc(-c2cc(=O)c3c(O)c(OC)c(OC)cc3o2)cc1O` [eupatorin], the “Fold … previously unknown compounds” value amounted to 5.6 fold and the “Fold (BLI enhancement, S/B ratio over control)” value came to 5.6 fold. As to `CCCc1nc2c(C)cc(-c3nc4ccccc4n3C)cc2n1Cc1ccc(-c2ccccc2C(=O)O)cc1` [telmisartan], the “Fold (BLI enhancement, S/B ratio over control)” value is recorded as 2.0 fold. On the same count and under the same terms, for `Cc1cc(O)cc(C)c1Cl` [chloroxylenol] the value was 2.4 fold; for `NC1(C(=O)NCC(=O)O)CCCC1` [cycloleucylglycine] (HELM PEPTIDE1{[NC1(C(=O)[*:2])CCCC1].G}$$$$V2.0), 2.5 fold; for `CCCc1nc(C)c2c(=O)[nH]c(-c3cc(S(=O)(=O)N4CCN(CC)CC4)ccc3OCC)nn12` [vardenafil], 3.3 fold.

For the compound `O=C(Nc1ccccc1)OCC(CN1CCCCC1)OC(=O)Nc1ccccc1` (stereo not drawn) [diperodon hydrochloride], the “Fold (BLI enhancement, S/B ratio over control)” value worked out at 2.6 fold. In the case of `COC(=O)Nc1nc2cc(C(=O)c3ccc(F)cc3)ccc2[nH]1` [flubendazole], the “Fold … previously unknown compounds” value stood at 6.3 fold and the “Fold (BLI enhancement, S/B ratio over control)” value stood at 6.3 fold. For the compound `CCC(=O)O[C@H]1CC[C@H]2[C@@H]3CCc4cc(O)ccc4[C@H]3CC[C@]12C` [estradiol propionate], the “Fold (BLI enhancement, S/B ratio over control)” value turned out to be 2.6 fold. The same measure, in the same setting: the result for `Clc1ccc(COC(Cn2ccnc2)c2ccc(Cl)cc2Cl)cc1` (stereo not drawn) [econazole] reads 2.5 fold; that for `CC(=O)OCC(=O)[C@@]1(O)[C@H](C)C[C@H]2[C@@H]3CCC4=CC(=O)C=C[C@]4(C)[C@@]3(F)[C@@H](O)C[C@@]21C` [dexamethasone acetate], 2.2 fold. With `C[C@]12CC[C@@H]3c4ccc(O)cc4CC[C@H]3[C@@H]1CC[C@@H]2O` [estradiol], the “fold (BLI enhancement), additional previously known ABCG2 inhibitors” value is reported as 3.6 fold.
